Test results as given in US11814643B2, “Enhanced sleeping beauty transposons, kits and methods of transposition” (Max-Delbrück-Centrum für Molekulare Medizin in der …, priority 2016, dated 2023).

Tests used:
SB transposition = assay: Transposition assay with inhibition of cathepsin or HSP90; type: cell-based; conditions: cathepsin inhibition; E64D 20 μM vs control
Method: In order to monitor transcriptional changes activated by the transposase, a genome-wide transcriptional study was performed (HeLa, Affymetrix). […] While HSPA2, a variant of the heat shock protein HSP70, is a member of the stress response, cathepsins are lysosomal proteases and have a vital role in mammalian cellular turnover. […] In addition, by mitigating the cellular stress response induction of the apoptotic signalling is moderated and cell viability improved.
FIG. 6 A. Effect of E64D (an inhibitor of cathepsins, cystein proteases and calpain) on SB transposition. Transposition assay, (20 μM, right side; control, left side). RNAi approach against cathepsin(s) is expected to yield a similar improvement. B. Differential expression of host genes in the presence oft the transposase (HeLa, Affymetrix). […] Cathepsins (CTs) degrade polypeptides and are distinguished by substrate specificities (CTSH, CTSF, CTS2).

HeLa cells = assay: Transposition assay of neo-marked mutated transposon constructs; type: cell-based
Text: FIG. 4 Enhanced binding affinity at the inner DR improves Sleeping Beauty transposition. On the left, schematics of various neo-marked, mutated transposon constructs are depicted. On the right, the respective transpositional activities are shown in comparison to wild type transposon (construct 1), set as 100%. A. Composite DRs were created by changing either the PAI (black box) or the RED (grey box) recognition motifs into a high-affinity binding site (CAST-5) selected by the CASTing experiment (marked by stars at the PAI and stripped at the RED recognition motifs). B. The CAST-5 sequence (SEQ ID NO: 24 or 25) was used to replace only the PAI recognition motif, while the rest of the DR was wild type.
Altering the affinity of the binding sites might challenge the ordered assembly process occurring during transposition of a SB transposon. Thus, a series of transposon versions were constructed where 12DR and/or 14DR motifs were replaced by CASTing selected, high affinity binding sites (FIG. 4A), and the various constructs were subjected to transposition assays. […] Alternatively, the negative effect of CAST-5 on transposition could, at least partially, be accounted to its preferential selection for PAI binding, while compromising its RED function. Indeed, the CAST sequences are predicted to be sub-optimal for RED interaction, including the ability to distinguish between inner vs outer positions (FIG. 2). To distinguish between the two scenarios, we generated CAST-5/wt hybrids, where CAST-5 was replacing PAI only, otherwise kept the DRs wild type (wt). Again, we tested the impact of the hybrid motifs on transposition in various combinations. […]
HeLa cells were grown in DMEM (GIBCO BRL, Germany) supplemented with 10% Fecal Calf Serum Gold (FCS Gold) (PAA, Germany) and 1% antimycotic antibiotic (Invitrogen, Germany). […] After 3 weeks of selection, colonies were stained and counted as described in Ivics et al., Cell 1997. […]

Compound	effect on SB transposition (SB transposition)	transpositional activity in comparison to wild type transposon (set as 100%) (HeLa cells; 12DRs replaced by CAST-5 motif) [%]	transpositional activity in comparison to wild type transposon (set as 100%) (HeLa cells; 14DRs replaced by CAST-5 motif) [%]	transpositional activity in comparison to wild type transposon (set as 100%) (HeLa cells; all the four DRs changed to CAST-5) [%]
CCOC(=O)[C@H]1O[C@@H]1C(=O)N[C@@H](CC(C)C)C(=O)NCCC(C)C [E64D]	improvement			
CAST-5: high-affinity SB transposase binding site selected by CASTing; 12DR SEQ ID NO: 24, 14DR SEQ ID NO: 25 (chain 1 GTGACGACCCCAAGTGTACATACACGCGCC; chain 2 GTGACGACCCCAAGTGTACATACACGCGCC; listed as DNA, chemistry not fully specified)		65	3	2.2
